{"source": "patent US10577360B2", "about": "“Arylamide derivatives having multimodal activity against pain” (ESTEVE PHARMACEUTICALS, S.A., priority 2016, dated 2020)", "data": [{"molecular_target": "Human α2δ-1 subunit of Cav2.2 calcium channel (Homo sapiens (Human), UniProt P54289)", "sequence (P54289 25-1103)": "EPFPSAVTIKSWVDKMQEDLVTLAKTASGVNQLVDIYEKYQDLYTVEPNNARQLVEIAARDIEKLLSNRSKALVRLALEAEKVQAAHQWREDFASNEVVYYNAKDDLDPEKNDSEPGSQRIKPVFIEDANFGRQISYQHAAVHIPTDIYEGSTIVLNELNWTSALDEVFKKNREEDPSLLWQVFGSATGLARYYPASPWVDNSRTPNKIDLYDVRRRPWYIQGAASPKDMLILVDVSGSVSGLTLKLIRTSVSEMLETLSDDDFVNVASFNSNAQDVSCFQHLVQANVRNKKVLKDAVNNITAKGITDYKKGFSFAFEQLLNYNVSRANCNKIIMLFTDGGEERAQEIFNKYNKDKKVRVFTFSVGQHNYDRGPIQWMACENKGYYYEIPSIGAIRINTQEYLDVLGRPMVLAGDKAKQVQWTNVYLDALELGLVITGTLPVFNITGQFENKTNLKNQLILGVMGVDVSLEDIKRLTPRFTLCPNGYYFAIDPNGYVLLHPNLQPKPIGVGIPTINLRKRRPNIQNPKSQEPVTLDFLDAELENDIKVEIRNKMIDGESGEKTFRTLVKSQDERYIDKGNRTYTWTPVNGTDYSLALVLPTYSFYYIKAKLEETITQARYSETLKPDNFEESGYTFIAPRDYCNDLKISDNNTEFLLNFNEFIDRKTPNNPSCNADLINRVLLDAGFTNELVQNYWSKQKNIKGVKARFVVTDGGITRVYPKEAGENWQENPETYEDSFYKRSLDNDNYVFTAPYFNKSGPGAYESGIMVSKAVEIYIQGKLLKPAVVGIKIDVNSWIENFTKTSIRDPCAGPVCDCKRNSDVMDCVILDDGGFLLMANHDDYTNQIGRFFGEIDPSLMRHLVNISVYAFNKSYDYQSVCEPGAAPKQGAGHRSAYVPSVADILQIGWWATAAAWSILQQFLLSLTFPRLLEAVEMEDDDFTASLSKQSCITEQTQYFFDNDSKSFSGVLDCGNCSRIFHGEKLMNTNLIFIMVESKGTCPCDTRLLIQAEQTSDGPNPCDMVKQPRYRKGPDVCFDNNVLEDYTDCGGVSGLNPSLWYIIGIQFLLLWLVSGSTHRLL", "assay": "Human α2δ-1 subunit of Cav2.2 calcium channel assay ([3H]-Gabapentin binding)", "settings": "not given", "units": {"Ki": "µM"}, "values": [{"smiles": "O=C(c1cccs1)N(c1ccn(-c2ccccc2)n1)C1CCCNC1", "note": "(stereo not drawn) [Example 53, N-(1-Phenyl-1H-pyrazol-3-yl)-N-(piperidin-3-yl)thiophene-2-carboxamide]", "Ki": "0.5 to 5"}, {"smiles": "CN(CCCN(C(=O)c1cccs1)c1ccn(-c2ccccc2)n1)Cc1ccccc1", "note": "[Example 62, N-{3-[Benzyl(methyl)amino]propyl}-N-(1-phenyl-1H-pyrazol-3-yl)thiophene-2-carboxamide]", "Ki": "0.5 to 5"}, {"smiles": "CN(CCN(C(=O)c1cccs1)c1ccn(-c2ccccc2)n1)Cc1ccccc1", "note": "[Example 61, N-{2-[Benzyl(methyl)amino]ethyl}-N-(1-phenyl-1H-pyrazol-3-yl)thiophene-2-carboxamide]", "Ki": "0.5 to 5"}, {"smiles": "O=C(c1cccs1)N(CCCNCc1ccccc1)c1ccn(-c2ccccc2)n1", "note": "[Example 56, N-[3-(Benzylamino)propyl]-N-(1-phenyl-1H-pyrazol-3-yl)thiophene-2-carboxamide]", "Ki": "0.5 to 5"}, {"smiles": "CCNCCN(C(=O)c1cccs1)c1ccn(-c2ccccc2)n1", "note": "[Example 68, N-[2-(Ethylamino)ethyl]-N-(1-phenyl-1H-pyrazol-3-yl)thiophene-2-carboxamide]", "Ki": "0.5 to 5"}, {"smiles": "CN1CCCC(N(C(=O)c2cccs2)c2ccn(-c3ccccc3)n2)CC1", "note": "(stereo not drawn) [Example 39, N-(1-Methylazepan-4-yl)-N-(1-phenyl-1H-pyrazol-3-yl)thiophene-2-carboxamide]", "Ki": "0.1 to 0.5"}, {"smiles": "CCN(C)CCN(C(=O)c1cccs1)c1ccn(-c2ccccc2)n1", "note": "[Example 63]", "Ki": "0.5 to 5"}, {"smiles": "O=C(c1cccs1)N(CCNCc1ccccc1)c1ccn(-c2ccccc2)n1", "note": "[Example 55, N-[2-(Benzylamino)ethyl]-N-(1-phenyl-1H-pyrazol-3-yl)thiophene-2-carboxamide]", "Ki": "0.5 to 5"}, {"smiles": "Cc1nnc(-c2cccc(-n3ccc(N(CCN(C)Cc4ccccc4)C(=O)c4cccs4)n3)c2)o1", "note": "[Example 69, N-{2-[Benzyl(methyl)amino]ethyl}-N-{1-[3-(5-methyl-1,3,4-oxadiazol-2-yl)phenyl]-1H-pyrazol-3-yl}thiophene-2-carboxamide]", "Ki": "0.1 to 0.5"}, {"smiles": "CNCCN(C(=O)c1cccs1)c1ccn(-c2ccccc2)n1", "note": "[Example 57, N-[2-(Methylamino)ethyl]-N-(1-phenyl-1H-pyrazol-3-yl)thiophene-2-carboxamide]", "Ki": "0.5 to 5"}]}, {"molecular_target": "Human α2δ-1 subunit of Cav2.2 calcium channel (Homo sapiens (Human), UniProt P54289)", "assay": "Human α2δ-1 subunit of Cav2.2 calcium channel assay ([3H]-Gabapentin binding)", "settings": "[3H]-Gabapentin binding; read-out: α2δ − 1 (Ki)", "units": {"Ki": "µM"}, "values": [{"smiles": "CN(C)C1CCC(N(C(=O)c2cccs2)c2ccn(-c3ccccc3)n2)CC1", "note": "(stereo not drawn) [Example 127, N-[4-(Dimethylamino)cyclohexyl]-N-(1-phenyl-1H-pyrazol-3-yl)thiophene-2-carboxamide]", "Ki": "> 5"}, {"smiles": "Cc1nnc(-c2cccc(-n3ccc(N(C(=O)c4cccc(O)c4)[C@H]4CC[C@H](N(C)C)CC4)n3)c2)o1", "note": "[Example 150, N-[(1r,4r)-4-(Dimethylamino)cyclohexyl]-3-hydroxy-N-{1-[3-(5-methyl-1,3,4-oxadiazol-2-yl)phenyl]-1H-pyrazol-3-yl}benzamide]", "Ki": "> 5"}, {"smiles": "Cc1nnc(-c2cccc(-n3ccc(N(C(=O)c4cccs4)[C@H]4CC[C@H](N(C)Cc5ccccc5)CC4)n3)c2)o1", "note": "[Example 151, N-{(1r,4r)-4-[Benzyl(methyl)amino]cyclohexyl}-N-{1-[3-(5-methyl-1,3,4-oxadiazol-2-yl)phenyl]-1H-pyrazol-3-yl}thiophene-2-carboxamide]", "Ki": "> 5"}, {"smiles": "Cc1nnc(-c2cccc(-n3ccc(N(C(=O)c4cccc(O)c4)[C@H]4CC[C@H](N(C)Cc5ccccc5)CC4)n3)c2)o1", "note": "[Example 153, N-{(1r,4r)-4-[Benzyl(methyl)amino]cyclohexyl}-3-hydroxy-N-{1-[3-(5-methyl-1,3,4-oxadiazol-2-yl)phenyl]-1H-pyrazol-3-yl}benzamide]", "Ki": "> 5"}, {"smiles": "CN(CCN(C(=O)c1cccs1)c1ccn(-c2ccccc2)n1)Cc1cccnc1", "note": "[Example 65]", "Ki": "0.5 to 5"}, {"smiles": "Cc1nnc(-c2cccc(-n3ccc(N(C(=O)c4cccc(O)c4)[C@H]4CC[C@@H](N(C)Cc5ccccc5)CC4)n3)c2)o1", "note": "[Example 154, N-{(1s,4s)-4-[Benzyl(methyl)amino]cyclohexyl}-3-hydroxy-N-{1-[3-(5-methyl-1,3,4-oxadiazol-2-yl)phenyl]-1H-pyrazol-3-yl}benzamide]", "Ki": "> 5"}, {"smiles": "Cc1nnc(-c2cccc(-n3ccc(N(C(=O)c4cccs4)[C@H]4CC[C@H](N(C)C)CC4)n3)c2)o1", "note": "[Example 149, N-[(1r,4r)-4-(Dimethylamino)cyclohexyl]-N-{1-[3-(5-methyl-1,3,4-oxadiazol-2-yl)phenyl]-1H-pyrazol-3-yl}thiophene-2-carboxamide]", "Ki": "> 5"}, {"smiles": "CN(Cc1ccccc1)C1CCC(N(C(=O)c2cccs2)c2ccn(-c3ccccc3)n2)CC1", "note": "(stereo not drawn) [Example 128, N-{4-[Benzyl(methyl)amino]cyclohexyl}-N-(1-phenyl-1H-pyrazol-3-yl)thiophene-2-carboxamide]", "Ki": "> 5"}, {"smiles": "CN(CCN(C(=O)c1cccs1)c1ccn(-c2ccccc2)n1)Cc1ccncc1", "note": "[Example 64, N-{2-[Methyl(pyridin-4-ylmethyl)amino]ethyl}-N-(1-phenyl-1H-pyrazol-3-yl)thiophene-2-carboxamide]", "Ki": "> 5"}, {"smiles": "Cc1nnc(-c2cccc(-n3ccc(N(C(=O)c4cccs4)[C@H]4CC[C@@H](N(C)Cc5ccccc5)CC4)n3)c2)o1", "note": "[Example 152, N-{(1s,4s)-4-[Benzyl(methyl)amino]cyclohexyl}-N-{1-[3-(5-methyl-1,3,4-oxadiazol-2-yl)phenyl]-1H-pyrazol-3-yl}thiophene-2-carboxamide]", "Ki": "> 5"}]}, {"molecular_target": "Human α2δ-1 subunit of Cav2.2 calcium channel (Homo sapiens (Human), UniProt P54289)", "assay": "Human α2δ-1 subunit of Cav2.2 calcium channel assay ([3H]-Gabapentin binding)", "settings": "read-out: α2δ − 1 (Ki)", "units": {"Ki": "µM"}, "values": [{"smiles": "CN1CCCC(N(C(=O)c2cccs2)c2ccn(-c3ccccc3)n2)C1", "note": "(stereo not drawn) [Example 67, N-(1-Methylpiperidin-3-yl)-N-(1-phenyl-1H-pyrazol-3-yl)thiophene-2-carboxamide]", "Ki": "> 5"}]}]}
